# Laboratory results from patent US20100152136A1 (priority 2006, published 2010).
# System: newly diagnosed multiple myeloma patients
# Test: Total Therapy 2 (TT2) clinical trial, multivariate Cox regression of overall and event-free survival
# Assay type: in vivo, human
# Method: Purified plasma cells (PCs) were obtained from newly diagnosed multiple myeloma patients who were treated on NIH-sponsored clinical trials UARK 98-026 (Total Therapy 2, TT2) (n=351) and UARK 03-033 (Total Therapy 3, TT3) (n=214). Both protocols utilized induction regimens, followed by melphalan-based tandem autotransplants, consolidation chemotherapy and maintenance treatment.
# The Kaplan-Meier method was to estimate OS. OS was defined as the time from the date of registration until death from any cause; survivors were censored at the time of last contact. Significance analysis of microarray (SAM) was used to determine statistically significant expression changes of genes in high- and low-TP53-expressing MM plasma cells. Univariate and multivariate analyses of prognostic factors were performed with the Cox regression.
# The details of TT2 and TT3 protocols and their overall results have been reported previously; however, results related to 177 additional patients treated in a TT3 successor protocol to validate bortezomib pharmaco-genomic data have not been reported. The median follow-up times for TT2 and TT3 are 7.2 and 3.9 years, respectively. Both protocols and their revisions had been approved by the Institutional Review Board, and patients had signed a written informed consent in keeping with institutional and federal policies.
# The Kaplan-Meier method was used to estimate overall and event-free survival with group comparisons made using the log-rank test. Overall survival and event-free survival were measured from the date of registration until death from any cause and disease relapse or death from any cause, respectively; survivors were censored at the time of last contact. Univariate and multivariate analyses of prognostic factors were carried out using Cox regression models.
# [1] = TT2, randomization to thalidomide, 170/341 patients, multivariate analysis, median follow-up 7.2 years (Table 5)
structure (smiles),measurement,setting,value
O=C1CCC(N2C(=O)c3ccccc3C2=O)C(=O)N1 (stereo not shown) [Thalidomide],effect of randomization on event-free and overall survival,"TT2, in words",beneficial effect
same,Event-Free Survival HR (95% CI),"TT2, randomization to thalidomide, 166/334 patients, multivariate analysis (Table 2)","0.75 (0.60, 0.93)"
same,Event-free survival HR,[1],0.61
same,Overall Survival HR,[1],0.70
